Target: T1, human mGlu5a receptor (Homo sapiens, UniProt P41594)
T1 construct: expressed in transfected cells
Test: Intracellular Ca2+ mobilization assay
Assay type: cell-based
Conditions: for Emax: HEK293, maximal response in % of the maximal stimulatory effect obtained with saturating concentrations of L-glutamate, HEK-293 human mGlu5a cells, L-glutamate at EC20, read-out: Efficacy (%); for EC50: HEK-293 cells stably transfected with human mGlu5a receptor, pre-incubation 10-30 min with test compound, then L-glutamate at EC20 (typically around 80 μM), Fluo-4AM fluorescence, read-out: EC50 (nM) mGluR5 PAM
Experimental: A monoclonal HEK-293 cell line stably transfected with a cDNA encoding for the human mGlu5a receptor was generated; for the work with mGlu5 Positive Allosteric Modulators (PAMs), a cell line with low receptor expression levels and low constitutive receptor activity was selected to allow the differentiation of agonistic versus PAM activity. Cells were cultured according to standard protocols (Freshney, 2000) in Dulbecco's Modified Eagle Medium with high glucose supplemented with 1 mM glutamine, 10% (vol/vol) heat-inactivated bovine calf serum, Penicillin/Streptomycin, 50 μg/ml hygromycin and 15 μg/ml blasticidin (all cell culture reagents and antibiotics from Invitrogen, Basel, Switzerland).
About 24 hrs before an experiment, 5×10^4 cells/well were seeded in poly-D-lysine coated, black/clear-bottomed 96-well plates. The cells were loaded with 2.5 μM Fluo-4AM in loading buffer (1×HBSS, 20 mM HEPES) for 1 hr at 37° C. and washed five times with loading buffer. The cells were transferred into a Functional Drug Screening System 7000 (Hamamatsu, Paris, France), and 11 half logarithmic serial dilutions of test compound at 37° C. were added and the cells were incubated for 10-30 min. with on-line recording of fluorescence. Following this pre-incubation step, the agonist L-glutamate was added to the cells at a concentration corresponding to EC20 (typically around 80 μM) with on-line recording of fluorescence; in order to account for day-to-day variations in the responsiveness of cells, the EC20 of glutamate was determined immediately ahead of each experiment by recording of a full dose-response curve of glutamate.
Responses were measured as peak increase in fluorescence minus basal (i.e. fluorescence without addition of L-glutamate), normalized to the maximal stimulatory effect obtained with saturating concentrations of L-glutamate. Graphs were plotted with the % maximal stimulatory using XLfit, a curve fitting program that iteratively plots the data using Levenburg Marquardt algorithm. The single site competition analysis equation used was y=A+((B−A)/(1+((x/C)D))), where y is the % maximal stimulatory effect, A is the minimum y, B is the maximum y, C is the EC50, x is the log 10 of the concentration of the competing compound and D is the slope of the curve (the Hill Coefficient). From these curves the EC50 (concentration at which half maximal stimulation was achieved), the Hill coefficient as well as the maximal response in % of the maximal stimulatory effect obtained with saturating concentrations of L-glutamate were calculated.
A depression of the signal observed after addition of the EC20 concentration of L-glutamate was indicative of an inhibitory activity of the test compound.

T1 sequence (P41594 21-1180 isoform P41594-2 limits assumed): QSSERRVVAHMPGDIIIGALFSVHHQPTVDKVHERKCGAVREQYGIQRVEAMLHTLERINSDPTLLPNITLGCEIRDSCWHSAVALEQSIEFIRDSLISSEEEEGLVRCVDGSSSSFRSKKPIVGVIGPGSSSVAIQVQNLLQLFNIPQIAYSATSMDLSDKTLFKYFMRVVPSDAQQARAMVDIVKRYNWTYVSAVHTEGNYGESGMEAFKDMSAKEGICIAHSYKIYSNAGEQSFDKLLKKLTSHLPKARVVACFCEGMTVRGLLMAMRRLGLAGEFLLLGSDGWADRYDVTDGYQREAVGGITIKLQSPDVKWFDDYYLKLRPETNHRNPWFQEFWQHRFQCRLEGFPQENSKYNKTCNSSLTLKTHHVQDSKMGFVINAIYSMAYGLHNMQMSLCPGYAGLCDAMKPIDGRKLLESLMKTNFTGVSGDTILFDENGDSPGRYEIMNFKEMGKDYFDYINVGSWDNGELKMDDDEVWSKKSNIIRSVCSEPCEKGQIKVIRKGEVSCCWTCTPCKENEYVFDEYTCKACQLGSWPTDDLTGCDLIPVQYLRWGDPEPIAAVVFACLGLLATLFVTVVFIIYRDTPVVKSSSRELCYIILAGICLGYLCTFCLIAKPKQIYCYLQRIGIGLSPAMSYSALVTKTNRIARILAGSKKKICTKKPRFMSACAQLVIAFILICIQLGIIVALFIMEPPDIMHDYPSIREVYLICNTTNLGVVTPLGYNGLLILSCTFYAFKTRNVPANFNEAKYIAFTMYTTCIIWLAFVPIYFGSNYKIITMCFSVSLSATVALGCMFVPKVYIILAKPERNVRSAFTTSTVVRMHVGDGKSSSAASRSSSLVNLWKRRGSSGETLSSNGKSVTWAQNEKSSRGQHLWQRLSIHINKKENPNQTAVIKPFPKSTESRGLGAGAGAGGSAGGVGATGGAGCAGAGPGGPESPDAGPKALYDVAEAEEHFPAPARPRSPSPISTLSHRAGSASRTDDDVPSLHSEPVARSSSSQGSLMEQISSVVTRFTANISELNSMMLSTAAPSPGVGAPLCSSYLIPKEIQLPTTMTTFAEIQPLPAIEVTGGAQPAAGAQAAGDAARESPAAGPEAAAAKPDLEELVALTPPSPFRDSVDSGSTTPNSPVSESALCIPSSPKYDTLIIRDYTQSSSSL

Row | Structure (SMILES) | Emax [%] | EC50 [nM]
1 | CC1CCN(Cc2ccc(C#Cc3ccccc3)cn2)C1=O (racemic) [Example 39, rac-3-Methyl-1-(5-phenylethynyl-pyridin-2-ylmethyl)-pyrrolidin-2-one] | 120 | 93
2 | OC1CCC(Oc2ncc(C#Cc3ccccc3)cn2)CC1 (racemic) [Example 22, rac-4-(5-Phenylethynyl-pyrimidin-2-yloxy)-cyclohexanol] | 121 | 168
3 | O=C1COCCN1Cc1ccc(C#Cc2ccccc2)cn1 [Example 30, 4-(5-Phenylethynyl-pyridin-2-ylmethyl)-morpholin-3-one] | 121 | 83
4 | CN1CCCN(Cc2ccc(C#Cc3ccccc3)cn2)C1=O [Example 40, 1-Methyl-3-(5-phenylethynyl-pyridin-2-ylmethyl)-tetrahydro-pyrimidin-2-one] | 123 | 140
5 | O=C1N(Cc2ccc(C#Cc3ccccc3)cn2)CCN1c1ccccc1 [Example 37, 1-Phenyl-3-(5-phenylethynyl-pyridin-2-ylmethyl)-imidazolidin-2-one] | 84 | 103
6 | CC1(C)CCC(=O)N(Cc2ccc(C#Cc3ccccc3)cn2)C1 [Example 38, 5,5-Dimethyl-1-(5-phenylethynyl-pyridin-2-ylmethyl)-piperidin-2-one] | 94 | 161

Other lines, results leading:

Row | Emax [%] | EC50 [nM] | Structure (SMILES)
7 | 45 | 78 | CC1(CNc2ncc(C#Cc3ccccc3)cn2)COC1 [Example 21, (3-Methyl-oxetan-3-ylmethyl)-(5-phenylethynyl-pyrimidin-2-yl)-amine]
8 | 72 | 340 | OC1CCCCC1Nc1ncc(C#Cc2ccccc2)cn1 (mixture of isomers) [Example 10, 2-(5-phenylethynyl-pyrimidin-2-ylamino)-cyclohexanol]
9 | 113 | 195 | C(#Cc1cnc(N[C@H]2C[C@@H]3CC[C@H]2O3)nc1)c1ccccc1 (racemic) [Example 4, rac-7-Oxa-bicyclo[2.2.1]hept-2-yl-(5-phenylethynyl-pyrimidin-2-yl)-amine]
